Results published in US5208032A, “Increasing the growth of turkeys using implant of 19-nortestosterone” (Rutgers, The State University of New Jersey, priority 1992, dated 1993).

What was measured:
testosterone antiserum = conditions: manufacturer statement; cited from earlier work
[1] = Comparison of effects on growth in intact male and female White Leghorn chickens (Study II, Table 1); format: in vivo; conditions: for 6-week Body Weight Change / 12-week Body Weight Change / 12-week Shank-Toe Length Change: 1.0-cm implant, vs cholesterol control, (decrease); for 6-week Body Weight / 12-week Body Weight (final) / 12-week Shank-Toe Length: 1.0-cm s.c. implant
Protocol: (§1) The single comb White Leghorn strain (Dekalb XL) of chicken (Avian Services, Frenchtown, N.J.) was used in all studies. Chicks were obtained on the day following hatch and were then maintained in a well ventilated, temperature- and humidity-controlled animal room. Chicks were housed in temperature-controlled (access to small brood chambers--32° to 35° C.), wire-floored, 5-tier brooder batteries (measuring 0.74 W×1.55 L×0.27 H m per tier) until termination of respective studies. A 12 hour light:12 hour dark photoperiod was maintained at all times within the animal room. Feed and water were available ad libitum, with a standard commercial diet (Agway; Bordentown, N.J.), chick starter mash, fed to chicks 1 to 42 days of age, and then from 43 to 84 days, grower mash was provided (manufacturer statement on ration compositions are shown in Table 2).
In all studies, chicks were rank-ordered by weight, wing-banded and distributed into treatment groups of equal body weights at 14 days of age. Excluding Study I, e.g., in which male, female and castrate male comparisons were made, all control groups were implanted with 1.0-cm length cholesterol-filled Silastic polysiloxane implants (i.e., steroid surface exposure of 1.0-cm; actual length was 2.0-cm with 1/2 cm wood dowel plugs placed at each end of implant). The remaining treatment groups consisted of chicks (male, female or castrated male) implanted with either testosterone-, 5-alpha-DHT-, 5-beta-DHT-, estradiol-17-beta-, or 19-nortestosterone-filled Silastic polysiloxane implants with steriod surface exposures of either 0.3, 1.0 or 3.0 cm in length. Steroid implants were prepared by manually packing respective crystalline steroids (Steraloids; Wilton, N.H.) into Silastic Medical Grade tubing (1.57 mm i.d.; Dow Corning) (Smith et al., 1977). The amounts of steroid contained in the implants were as follows (mean±SEM of 20 randomly chosen implants, 5 for each steroid): 2.6±0.2 mg (0.3-cm), 8.9±0.4 mg (1.0-cm), and 29.2±0.7 mg 3.0-cm). At the time of group assignment, implants were placed in the subcutaneous (S.C.) layer of skin behind the neck. Supplemental steroid implants (containing doses of steroids equivalent to those of the initial implants) were implanted at 6 and 10 weeks of age, without removal of prior implants, to ensure adequate androgen replacement with increasing growth. Cage floors and fecal collection trays were checked for 2 consecutive days following each implantation session to ensure completeness of procedure. […] An outline of individual studies along with experimental treatments (i.e., type and dose of steroid) and number of birds per treatment group is given in Table 3.
Body weight and shank-toe length (King, 1969; combined length of metatarsus and longest toe which is an estimate of bone growth) were measured at weekly (or biweekly in Study I) intervals from the beginning through the end of each study. At the termination of studies I (12 weeks of age), III (12 weeks of age), IV (12 weeks of age) and V (6 weeks of age), several organs were excised and immediately weighed at necropsy. Relative tissue weights (percent of final body weight) and body weight minus [comb plus wattle weights] (i.e., final adjusted body weight) were also calculated. Excluding Study I, biweekly blood samples were obtained by venipuncture of the wing vein from the same individual birds for respective treatments. After centrifugation of whole blood, plasma was removed and stored at -20° C. until hormone assays were performed.
^a Steroid treatments entailed the subcutaneous implantation (between
the shoulders) of 1.0 cm length, silastic implants (crystalline steroids
at 2, 6 and 10 weeks of age.)

[2] = Comparison of effect of 19-nortestosterone and 5-alpha-DHT on growth in castrated male White Leghorn chickens (Study V, Table III); format: in vivo; conditions: for Abdominal Adipose / Final Shank-toe Length / Right Breast Muscle: 6 weeks; for Abdominal Adipose Change / Final 6-week Body Wt. Change / Final Shank-toe Length Change / Right Breast Muscle Change: given unsigned (decrease vs cholesterol); for Final 6-week Body Wt.: minus comb + wattle weight
Protocol: as §1
Excluding Study II, chicks were either castrated (Quigley, 1967) or sham-operated at 13 days of age. Prior to castration, cockerels were deprived of feed and water for 24 hours in order that the intestines may become empty and thus permit better vision into the body cavity and accessibility to testes. Birds were restrained by fastening the wings and legs with leather straps so that sufficient tension was applied to hold the bird well stretched out in a lateral recumbency (on its left side). Next, an approximate 1 inch incision was made midway between the last two ribs and a small rib spreader inserted to hold the ribs about 1/2 inch apart.
Forceps were used to remove both testicles, with the lower or left testicle removed first. The forceps were carefully worked over the testicle and so manipulated as to enclose the entire organ. It was then drawn out with a slight twisting motion. At this step, care was taken not to rupture any of the primary blood vessels. When the rib spreader was removed, and the tension on the bird released (i.e., leg and wing straps removed), the skin and thigh muscles slipped back over the incision thus affording a natural protection. No special care was necessary for surgically manipulated birds other than to puncture "air pockets" which developed under the skin due to air escaping from within the abdominal cavity before the incision between the ribs was healed.
In all studies, chicks were rank-ordered by weight, wing-banded and distributed into treatment groups of equal body weights at 14 days of age. Excluding Study I, e.g., in which male, female and castrate male comparisons were made, all control groups were implanted with 1.0-cm length cholesterol-filled Silastic polysiloxane implants (i.e., steroid surface exposure of 1.0-cm; actual length was 2.0-cm with 1/2 cm wood dowel plugs placed at each end of implant). The remaining treatment groups consisted of chicks (male, female or castrated male) implanted with either testosterone-, 5-alpha-DHT-, 5-beta-DHT-, estradiol-17-beta-, or 19-nortestosterone-filled Silastic polysiloxane implants with steriod surface exposures of either 0.3, 1.0 or 3.0 cm in length. Steroid implants were prepared by manually packing respective crystalline steroids (Steraloids; Wilton, N.H.) into Silastic Medical Grade tubing (1.57 mm i.d.; Dow Corning) (Smith et al., 1977). The amounts of steroid contained in the implants were as follows (mean±SEM of 20 randomly chosen implants, 5 for each steroid): 2.6±0.2 mg (0.3-cm), 8.9±0.4 mg (1.0-cm), and 29.2±0.7 mg 3.0-cm). At the time of group assignment, implants were placed in the subcutaneous (S.C.) layer of skin behind the neck. Supplemental steroid implants (containing doses of steroids equivalent to those of the initial implants) were implanted at 6 and 10 weeks of age, without removal of prior implants, to ensure adequate androgen replacement with increasing growth. Cage floors and fecal collection trays were checked for 2 consecutive days following each implantation session to ensure completeness of procedure. […]

SMILES	cross-reaction with Immuchem testosterone antiserum (testosterone antiserum) [%]	6-week Body Weight Change ([1]; intact female) [%]	12-week Body Weight Change ([1]; intact female) [%]	12-week Shank-Toe Length Change ([1]; intact female) [%]	6-week Body Weight ([1]; intact female) [g]	12-week Body Weight (final) ([1]; intact female) [g]	12-week Shank-Toe Length ([1]; intact female) [cm]	6-week Body Weight Change ([1]; intact male) [%]	12-week Body Weight Change ([1]; intact male) [%]	12-week Shank-Toe Length Change ([1]; intact male) [%]	6-week Body Weight ([1]; intact male) [g]	12-week Body Weight (final) ([1]; intact male) [g]	12-week Shank-Toe Length ([1]; intact male) [cm]	Abdominal Adipose ([2]; 1.0-cm implant) [g]	Final Shank-toe Length ([2]; 1.0-cm implant) [cm]	Right Breast Muscle ([2]; 1.0-cm implant) [g]	Abdominal Adipose Change ([2]; 1.0-cm implant) [%]	Final 6-week Body Wt. Change ([2]; 1.0-cm implant) [%]	Final Shank-toe Length Change ([2]; 1.0-cm implant) [%]	Right Breast Muscle Change ([2]; 1.0-cm implant) [%]	other results
C[C@]12CCC(=O)C[C@@H]1CC[C@@H]1[C@@H]2CC[C@]2(C)[C@@H](O)CC[C@@H]12 [5-alpha-DHT, 5-alpha-dihydrotestosterone]	7.8	9.9	6.5	3.3	529 ± 12	1051 ± 15	14.6 ± 0.12	17.2	16.1	7.0	535 ± 27	1171 ± 50	15.9 ± 0.24	2.05 ± 0.12	11.4 ± 0.07	16.3 ± 0.67	33	8.6	4.2	17.7	Final 6-week Body Wt. ([2]; 1.0-cm implant): 422 ± 10 g
C[C@]12CC[C@H]3[C@@H](CCC4=CC(=O)CC[C@@]43C)[C@@H]1CC[C@@H]2O [Testosterone, testosterone]	100	5.8	5.1	2.6	553 ± 11	1067 ± 22	14.7 ± 0.09	9.4	8.6	3.1	585 ± 13	1275 ± 27	16.5 ± 0.17								
C[C@]12CC[C@H]3[C@@H](CCC4=CC(=O)CC[C@@H]43)[C@@H]1CC[C@@H]2O [19-Nortestosterone, 19-nortestosterone]														0.26 ± 0.08	10.2 ± 0.12	13.2 ± 0.87	91	24.0	14.3	33.3	Abdominal Adipose ([2]; 0.3-cm implant): 1.26 ± 0.19 g; Final Shank-toe Length ([2]; 0.3-cm implant): 10.8 ± 0.13 cm; Right Breast Muscle ([2]; 0.3-cm implant): 13.9 ± 1.1 g; Abdominal Adipose Change ([2]; 0.3-cm implant): 58%; Final 6-week Body Wt. Change ([2]; 0.3-cm implant): 16.9%; Final Shank-toe Length Change ([2]; 0.3-cm implant): 9.2%; Right Breast Muscle Change ([2]; 0.3-cm implant): 29.8%; Final 6-week Body Wt. ([2]; 0.3-cm implant): 384 ± 18 g; Final 6-week Body Wt. ([2]; 1.0-cm implant): 351 ± 13 g; Abdominal Adipose ([2]; 3.0-cm implant): 0.58 ± 0.12 g; Final Shank-toe Length ([2]; 3.0-cm implant): 9.8 ± 0.17 cm; Right Breast Muscle ([2]; 3.0-cm implant): 12.0 ± 0.96 g; Abdominal Adipose Change ([2]; 3.0-cm implant): 81%; Final 6-week Body Wt. Change ([2]; 3.0-cm implant): 24.5%; Final Shank-toe Length Change ([2]; 3.0-cm implant): 17.6%; Right Breast Muscle Change ([2]; 3.0-cm implant): 39.4%; Final 6-week Body Wt. ([2]; 3.0-cm implant): 349 ± 19 g
